In patent US20150224089A1, “COMBINATIONS OF IKKi/TBK1 INHIBITORS WITH BETA ADRENERGIC AGONISTS OR SYMPATHETIC NERVOUS SYSTEM ACTIVATORS” (THE REGENTS OF THE UNIVERSITY OF MICHIGAN, priority 2014, published 2015):

Tests used:
epididymal WAT = experiment: Immunoblots (HSL phosphorylation) in epididymal WAT after CL-316,243 injection in HFD-fed mice; type: in vivo; details: HFD-fed mice pretreated with amlexanox 4 days; 5 min after CL-316,243 IP injection
Procedure: (§1) (A) Fold increase in serum FFA (left panel) and glycerol (right panel) levels 15 min after CL-316,243 injection in ND- or HFD-fed mice treated with amlexanox or vehicle control for 4 days. (B) Glycerol release from ex vivo epididymal (left panel) and inguinal (right panel) WATs after 1 hr pretreatment with amlexanox or vehicle. CL-316,243 treatment was started at time zero. (C) Immunoblots in inguinal WAT lysates from FIG. 5B after 60 min of CL-316,243 treatment. (D) cAMP levels in epididymal WAT 20 min after CL-316,243 (CL) or saline control injection in HFD-fed mice treated with amlexanox or vehicle control for 4 days. (E) Immunoblots in epididymal WAT 5 min after CL-316,243 or saline control injection in HFD-fed mice treated with amlexanox or vehicle control for 4 days. (F) Relative oxygen comsumption of mice in each treatment group.
To examine whether inhibition of TBK1 and IKKε with amlexanox reverses resistance to catecholamineinduced lipolysis in vivo by increasing stimulation of cAMP production, cAMP levels we measured in epididymal adipose tissue from mice on HFD after CL-316,243 IP injection. Levels of cAMP were increased after CL-316,243 IP injection in mice on HFD pretreated with amlexanox (FIG. 5D).

[1] = test system: white adipose tissues from mice on a HFD; experiment: Glycerol release from ex vivo epididymal and inguinal white adipose tissue; details: ex vivo 1 hr pretreatment with amlexanox, CL-316,243 treatment, more pronounced in inguinal depot
Procedure: as §1, with “group. […]” for “group.”

inguinal WAT = experiment: Immunoblots in ex vivo inguinal WAT lysates after CL-316,243 treatment; design: species or system mice
Procedure: as §1, with “group. […]” for “group.”

SMILES: CC(C)c1ccc2oc3nc(N)c(C(=O)O)cc3c(=O)c2c1 [amlexanox, 2-amino-7-isopropyl-1-azaxanthone-3-carboxylic acid; 2-amino-7-isopropyl-5-oxo-5H-chromeno[2,3-b]pyridine-3-carboxylic acid]
- HSL phosphorylation in epididymal WAT (epididymal WAT): increased
- glycerol release from white adipose tissues [1]: enhanced glycerol release
- phosphorylation of TBK1 at Ser172 (inguinal WAT; ex vivo amlexanox pretreatment, relief of feedback inhibition): increased
- phosphorylation of HSL, perilipin and PKA substrate motif proteins in response to CL-316,243 (inguinal WAT; inguinal fat depot, amlexanox pretreatment vs vehicle-pretreated, 60 min CL-316,243): increased phosphorylation
